Holding throughout (type): in vitro ADME
Series [1] in a line: Liver microsomal stability, mouse. To be noted: male, pH 7.4, liver microsomes. The protocol:
(§1) Mouse hepatic microsomes were isolated from pooled (50), perfused livers of male Balb/c mice. Rat hepatic microsomes were isolated from pooled (15), perfused livers of male Wistar rats. Isolation was performed according to the standard protocol (Hill, J. R. in Current Protocols in Pharmacology 7.8.1-7.8.11, Wiley Interscience, 2003). The batches of microsomes were tested for quality control using Imipramine, Propranolol and Verapamil as reference compounds.
(§2) Microsomal incubations were carried out in 96-well plates in 5 aliquots of 40 μL each (one for each time point). Liver microsomal incubation medium contained PBS (100 mM, pH 7.4), MgCl2 (3.3 mM), NADPH (3 mM), glucose-6-phosphate (5.3 mM), glucose-6-phosphate dehydrogenase (0.67 units/ml) with 0.42 mg of liver microsomal protein per ml. Control incubations were performed replacing the NADPH-cofactor system with PBS. Test compound (2 μM, final solvent concentration 1.6%) was incubated with microsomes at 37° C., shaking at 100 rpm. Incubations were performed in duplicates. Five time points over 40 minutes have been analyzed. The reactions were stopped by adding 12 volumes of 90% acetonitrile-water to incubation aliquots, followed by protein sedimentation by centrifuging at 5500 rpm for 3 minutes. […]. Supernatants were analyzed using the HPLC system coupled with tandem mass spectrometer (API3000 PE Sciex). Acquisition and analysis of the data were performed using Analyst 1.5.2 software (PE Sciex). The elimination constant (kel), half-life (t½) and intrinsic clearance (Clint) were determined in plot of […] versus time, using linear regression analysis:
(§3) Mouse hepatic microsomes were isolated from pooled, perfused livers of male CD1 mice. Rat hepatic microsomes were isolated from pooled, perfused livers of male Sprague Dawley rats. Dog hepatic microsomes were isolated from pooled, perfused livers of male Beagle dogs. The batches of microsomes were tested for quality control using Testosterone, Propranolol and Caffeine as reference compounds.
(§4) A 10 mM stock solution of compound in DMSO is diluted three-fold in DMSO. This pre-diluted compound solution is then further diluted to 2 μM in a 50 mM phosphate buffer (PBS, pH 7.4) and pre-warmed at 37° C. This compound dilution is mixed F2 with microsomal/cofactor mix at 37° C. under shaking at 300 rpm. Final reaction conditions are: 100 μL incubation volume, 1 μM of test compound (in duplicate), <0.1% DMSO, 0.5 mg/mL microsomes, 0.6 U/mL Glucose-6-phosphate-dehydrogenase (G6PDH, Roche, 10127671001), 3.3 mM MgCl2 (Sigma, M2670), 3.3 mM glucose-6-phosphate (Sigma, G-7879) and 1.3 mM NADP+ (Sigma, N-0505).
(§5) After 60 min of incubation at 300 rpm and 37° C., the reaction was stopped with 3 volumes of STOP solution (acetonitrile/MeOH 2/1 with diclofenac as internal standard). For the time point zero, 3 volumes of STOP solution were added to the compound dilution before the microsome mix was added. Six time points over 60 minutes have been analyzed. The samples of all time points were centrifuged, filtered and the supernatant analyzed by LCMS/MS (systems API4000).
(§6) The instrument responses (peak areas/IS peak area) were referenced to the zero time-point samples (considered as 100%) in order to determine the percentage of compound remaining.
(§7) Testosterone (1 μM) and Propranolol and Caffeine (1 μM) were used as reference compounds, being unstable and stable compounds respectively. If the microsomal stability values for these controls are not in the range determined by the historical data, the assay is not validated. The solubility of the compound in the final test concentration in 50 mM buffer pH 7.4 is checked by microscope to indicate whether precipitation is observed or not. If a precipitate is observed, no data of microsomal stability is generated.
On the technique in general: Liver microsomes are vesicles of endoplasmic reticulum, rich in cytochrome P450 enzymes.

A short description of series [2]: Liver microsomal stability, rat. To be noted: male, pH 7.4, liver microsomes. As for the experimental part: as §1, §2, §3, §4, §5, §6, §7
Series [3] deals with CYP2C9 (Homo sapiens (Human), UniProt P11712). The experiment in a line: CYP inhibition, CYP2C9. To be noted: test compound at 10 μM, read-out: % Inhibition (PIN) 2C9. The protocol: The aim of this assay is to determine the inhibitory potential of a test compound. A major concern for drug-drug-interaction is cytochrome P450 inhibition. Reversible CYP inhibition was determined in human liver microsomes using specific probe substrates for human cytochrome P450 isoenzymes CYP1A2, 2C9, 2C19, 2D6 and 3A4.
CYP2C9, sequence (P11712 whole entry): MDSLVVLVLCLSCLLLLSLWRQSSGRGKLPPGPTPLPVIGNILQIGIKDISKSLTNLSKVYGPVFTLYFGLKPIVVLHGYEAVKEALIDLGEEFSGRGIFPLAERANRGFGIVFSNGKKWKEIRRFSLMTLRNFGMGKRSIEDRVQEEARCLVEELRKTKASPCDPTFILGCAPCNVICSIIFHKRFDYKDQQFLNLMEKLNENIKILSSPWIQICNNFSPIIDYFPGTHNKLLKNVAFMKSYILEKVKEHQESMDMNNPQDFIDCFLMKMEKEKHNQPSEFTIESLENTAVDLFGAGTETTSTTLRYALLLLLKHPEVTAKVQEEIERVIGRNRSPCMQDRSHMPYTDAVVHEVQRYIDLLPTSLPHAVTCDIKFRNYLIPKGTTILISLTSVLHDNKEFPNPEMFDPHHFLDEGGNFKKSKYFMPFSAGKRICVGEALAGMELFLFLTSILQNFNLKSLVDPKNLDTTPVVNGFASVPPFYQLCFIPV
The potential for CYP450 inhibition was assessed by performing in vitro inhibition studies using fluorogenic CYP450 substrates with the corresponding CYP450 enzymes and NADPH regeneration system (Vivid CYP450 Screening Kits) with some minor changes to the manufacturer's protocols. The fluorescent signal produced from reaction is directly proportional to the cytochrome P450 activity. In the cases when tested compounds interfere with the CYP450 enzyme-substrate reaction, the fluorescent signal decreases. […] After 10 minutes pre-incubation, the enzymatic reaction was initiated by the addition of a mix of NADPH and the appropriate CYP450 substrates. The plate was incubated for the desired reaction time (25 min for CYP1A2, CYP2C9, CYP2D6, and CYP3A4, 60 min for CYP2C19) after which Stop Reagent was added and fluorescence measured using SpectraMax Paradigm Multi-Mode Microplate Reader. All test points were performed in quadruplicates at concentration 10 μM (1% DMSO).
A 10 mM stock solution of test compound is prepared in methanol. This stock is further serially diluted 1:3 in methanol and then added to mixture containing 50 mM potassium phosphate buffer pH7.4, human liver microsomes (BD Gentest) and probe substrate. […]
After incubation at 37° C., the reaction (aliquot of 50 μL) is terminated with 150 μL CH3CN:MeOH (2:1) solution with internal standard (warfarin for 2C9, diclofenac for all other tested isoforms). Samples are centrifuged and the supernatant fractions analyzed by LC-MS/MS.
The instrument responses (ratio of test compound and internal standard peak areas) are referenced to those for solvent controls (assumed as 100%) in order to determine the percentage reduction in probe metabolism. Percent of control activity vs. concentration plots are generated and fitted using GraphPad Prism software to generate IC50.

Drawing on patent US20240368133A1, “Compounds for the Treatment of Pain, in Particular, Neuropathic Pain, and/or Other Diseases or Disorders that are Associated with AT2R and/or AT2R Mediated Signaling” (Confo Therapeutics N.V., priority 2021, published 2024), this text covers microsomal CLint and inhibition for 18 compounds.

As for `CCCCOC(=O)NS(=O)(=O)c1ccc(C(F)(F)F)cc1N1CCN(Cc2nc3ccccc3n2C)CC1` [Compound A-09, butyl N-[2-[4-[(1-methylbenzimidazol-2-yl)methyl]piperazin-1-yl]-4-(trifluoromethyl)phenyl]sulfonylcarbamate], the microsomal CLint in series [1] and in series [2] was 33 µL/min/mg each time.

In the case of `CCCCNC(=O)NS(=O)(=O)c1ccc(C(F)(F)F)cc1N1CCN(Cc2nc3ccccc3n2C)CC1` [Compound A-10, 1-butyl-3-[2-[4-[(1-methylbenzimidazol-2-yl)methyl]piperazin-1-yl]-4-(trifluoromethyl)phenyl]sulfonyl-urea], the intrinsic metabolic clearance (microsomal CLint) (usually the rate of metabolic loss divided by the concentration) was 69 µL/min/mg in series [1] and 28 µL/min/mg in series [2]. The inhibition (commonly the share of the control response that was lost under treatment) at 10 µM in series [3] amounted to 46.1%.

`CCCCNC(=O)NS(=O)(=O)c1ccc(C)cc1N1CCN(Cc2nc3ccccc3n2C)CC1` [Compound A-12, 1-butyl-3-[4-methyl-2-[4-[(1-methylbenzimidazol-2-yl)methyl]piperazin-1-yl]phenyl]sulfonyl-urea]: the microsomal CLint in series [1] was determined as 157 µL/min/mg; in series [2] it was 23 µL/min/mg.

Consider `CC(C)Cc1ccc(-c2nn[nH]n2)c(N2CCN(Cc3nc4ccccc4n3C)CC2)c1` [Compound A-20, 2-[[4-[5-isobutyl-2-(2H-tetrazol-5-yl)-phenyl]piperazin-1-yl]methyl]-1-meth-yl-benzimidazole], for which the microsomal CLint in series [1] is 20 µL/min/mg; in series [2] it was 28 µL/min/mg.

Consider `CC(C)Oc1ccc(-c2nn[nH]n2)c(N2CCN(Cc3nc4ccccc4n3C)CC2)c1` [Compound A-24, 2-[[4-[5-isopropoxy-2-(2H-tetrazol-5-yl)phenyl]piperazin-1-yl]methyl]-1-methyl-benzimidazole], for which the intrinsic clearance (microsomal CLint) in series [1] was found to be 9 µL/min/mg; in series [2], 7 µL/min/mg. In series [3], the inhibition at 10 µM was 36.6%.

For the compound `CC(C)Cc1ccc(-c2nn[nH]n2)c(N2CCN(Cc3nc4ccccc4c(=O)[nH]3)CC2)c1` [Compound A-31, 2-[[4-[5-isobutyl-2-(2H-tetrazol-5-yl)phenyl]piperazin-1-yl]methyl]-3H-quinazolin-4-one], the microsomal CLint in series [1] came to 16 µL/min/mg; in series [2], 5 µL/min/mg. The inhibition at 10 µM in series [3] turned out to be 73%.

Take `CC(C)Oc1ccc(-c2nn[nH]n2)c(N2CCN(Cc3nc4ccccc4c(=O)[nH]3)CC2)c1` [Compound A-32]: the microsomal CLint in series [1] was 6 µL/min/mg; in series [2], 13 µL/min/mg. Besides, in series [3], the inhibition at 10 µM was found to be 62.4%.

Take `CC(C)Oc1ccc(-c2nn[nH]n2)c(N2CCN(Cc3nc4ccccc4s3)CC2)c1` [Compound A-51, 2-[[4-[5-isoprop-oxy-2-(2H-tetrazol-5-yl)phenyl]piper-azin-1-yl]methyl]-1,3-benzothiazole]: the microsomal CLint worked out at 4 µL/min/mg in series [1] and 1 µL/min/mg in series [2].

For `Cc1cc(CN2CCN(c3cc(CC(C)C)ccc3-c3nn[nH]n3)CC2)no1` [Compound A-82, 3-[[4-[5-isobutyl-2-(2H-tetrazol-5-yl)phenyl]piperazin-1-yl]methyl]-5-methyl-isoxazole], the microsomal CLint in series [1] is 7 µL/min/mg; in series [2] it was 4 µL/min/mg. Besides, in series [3], the inhibition at 10 µM was 32.1%.

`CC(C)Cc1ccc(-c2nn[nH]n2)c(N2CCN(Cc3nccn3C)CC2)c1` [Compound A-83, 1-[5-isobutyl-2-(2H-tetrazol-5-yl)-phenyl]-4-[(1-meth-ylimidazol-2-yl)-methyl]piperazine]: the figures for the microsomal CLint in series [1] and in series [2] were 11 µL/min/mg and 3 µL/min/mg, respectively. For the same compound, the inhibition at 10 µM in series [3] was 3.37%.

Regarding `CC(C)Cc1ccc(-c2nn[nH]n2)c(N2CCN(Cc3ccnn3C)CC2)c1` [Compound A-84, 1-[5-isobutyl-2-(2H-tetrazol-5-yl)phenyl]-4-[(1-methylpyrazol-5-yl)methyl]piperazine], the microsomal CLint turned out to be 17 µL/min/mg in series [1] and 7 µL/min/mg in series [2]. For the same compound, the inhibition at 10 µM in series [3] stood at 56.2%.

As for `CC(C)Cc1ccc(-c2nn[nH]n2)c(N2CCN(Cc3ncccn3)CC2)c1` [Compound A-88], the microsomal CLint in series [1] and in series [2] was 7 µL/min/mg each time. The inhibition at 10 µM in series [3] is 15.8%.

On to `CC(C)Cc1ccc(-c2nn[nH]n2)c(N2CCN(Cc3cccnn3)CC2)c1` [Compound A-90, 3-[[4-[5-isobutyl-2-(2H-tetrazol-5-yl)phenyl]piperazin-1-yl]methyl]pyridazine], for which the microsomal CLint in series [1] came to 10 µL/min/mg; in series [2], 4 µL/min/mg. Besides, the inhibition at 10 µM in series [3] is 28.4%.

Regarding `CC(C)Cc1cc(F)c(-c2nn[nH]n2)c(N2CCN(Cc3cccnn3)C(C)C2)c1` (stereo not shown) [Compound A-173, 3-[[4-[3-fluoro-5-isobutyl-2-(2H-tetrazol-5-yl)phenyl]-2-methyl-piperazin-1-yl]methyl]pyridazine], the microsomal CLint in series [1] came out at 5 µL/min/mg; in series [2], 12 µL/min/mg. In series [3], the inhibition at 10 µM is 17.2%.

Take `CCC1CN(Cc2cccnn2)CCN1c1cc(CC(C)C)cc(F)c1-c1nn[nH]n1` (stereo not shown) [Compound A-181, 3-[[3-ethyl-4-[3-fluoro-5-isobutyl-2-(2H-tetrazol-5-yl)phenyl]piperazin-1-yl]methyl]pyridazine]: the microsomal CLint in series [1] is 6 µL/min/mg; in series [2], 5 µL/min/mg.

In the case of `CC(C)Cc1cc(F)c(-c2nn[nH]n2)c(N2CC(C)N(Cc3cccnn3)CC2C)c1` (stereo not shown) [Compound A-183, 3-[[4-[3-fluoro-5-isobutyl-2-(2H-tetrazol-5-yl)phen-yl]-2,5-dimethyl-piperazin-1-yl]-methyl]pyridazine], the microsomal CLint in series [1] was 12 µL/min/mg; in series [2] it was 7 µL/min/mg.

Compound `CC(C)Cc1cc(F)c(-c2nn[nH]n2)c(N2CCN(Cc3ccccn3)[C@@H](C)C2)c1` [Compound A-217, (2S)-4-[3-fluoro-5-isobutyl-2-(2H-tetrazol-5-yl)phenyl]-2-methyl-1-(2-pyridylmethyl)piperazine] had a microsomal CLint in series [2] of under 17.3 µL/min/mg. The inhibition at 10 µM in series [3] was found to be 51%.

In series [2], `Cc1cnc(CN2CCN(c3cc(CC(C)C)cc(F)c3-c3nn[nH]n3)C[C@@H]2C)s1` [Compound A-223, 2-[[(2S)-4-[3-fluoro-5-isobutyl-2-(2H-tetrazol-5-yl)phenyl]-2-methyl-piperazin-1-yl]methyl]-5-methyl-thiazole] yielded a microsomal CLint of 24.1 µL/min/mg. For the same compound, the inhibition at 10 µM in series [3] turned out to be 43%.
